The source of these data is US20200038474A1, “COMPOSITION, USE AND METHOD FOR TREATING NEURODEGENERATIVE DISEASES” (FUNDAÇÃO BUTANTAN, priority 2016, published 2020).

One test relates to κ opioid receptor. The conditions noted are these: literature report; cited from earlier work.
Test [1] deals with Experimental Autoimmune Encephalomyelitis. The test is described as follows: Experimental Autoimmune Encephalomyelitis (EAE) induced by MOG35-55, clinical signs scored 0 to 5. The test is classed as in vivo, female C57BL/6 mice.

In the case of EFSPENCQGESQPC [Crotalphine], in the test with κ opioid receptor, the antinociception entry is listed as “induces antinociception mediated by κ opioid receptor activation”. The “animals that reached clinical score 2” value in test [1] (single dose of 50 μg/kg on the 5th day after immunization, 100% of saline controls reached a score between 3 and 5) worked out at 43%. In addition, in test [1] (single dose of 50 μg/kg on the 5th day after immunization, vs saline control, n=8, p<0.05), the “severity of clinical signs” value is reported as “significantly decreased the severity of clinical signs”. Also, in test [1] (summary statement), the “motor impairment in animal model of multiple sclerosis” value is listed as “partially reverse the motor impairment”.
